Tests used:
thrombin = thrombin (Homo sapiens, UniProt P00734); assay: Kinetic evaluation of thrombin inhibition (Lineweaver-Burke and Dixon plot analyses); format: biochemical
Excerpt: Using a known amount of thrombin, a standard curve is constructed with known amount of hirudin or hirudin analog by adding hirudin to thrombin, and measuring residual thrombin activity using […] substrate S-2238. Thrombin inhibition by derivatized hirudin (hirudin-SPDP) or immobilized hirudin (the polyethylene terphthalate material with immobilized hirudin) is then compared to nonderivatized hirudin values by equating ED50 values using 10 NIH units/ml thrombin, and measuring residual thrombin activity.
Peak 3 conjugate material (shown in FIG. 4C and lane A in FIG. 5A) is evaluated by kinetic analysis. Kinetic evaluation of the ability of the peak 3 conjugate to inhibit thrombin activity is compared to hirudin alone. […] These determinations are made by Lineweaver-Burke and Dixon plot analyses. The inhibitor constant for hirudin is determined to be 1.7×10^-12. The inhibitor constant for the conjugate is 1.8×10^-11. There is a 10-fold loss in binding affinity when comparing the Ki values of hirudin to the conjugate, respectively. In a biologic or physiologic system, the different abilities of hirudin and conjugate to inhibit thrombin are insignificant.

[1] = tested on: thrombin-mediated platelet aggregation; assay: Inhibition of thrombin-mediated platelet aggregation and simultaneous ATP release (whole blood platelet aggregometer); format: cell-based; conditions: Thrombin 0.1 NIHU
Excerpt: Investigation of the biologic activity of hirudin covalently linked to albumin is examined by inhibiting thrombin-mediated platelet aggregation. A whole blood platelet aggregometer (Chronolog Corp., Havertown, PA) is used to measure platelet aggregation and simultaneous ATP release. Platelet aggregation is selected to quantify inhibition of thrombin events other than fibrin formation.

blood = assay: Thrombin time of blood containing inhibitor; conditions: 0.2 ATU/ml blood sample
Experimental: In addition, hirudin conjugated to a stable, soluble molecule increases hirudin stability in the bloodstream. For example, 0.1 anti-thrombin units (ATU) of hirudin conjugate standard/ml of blood increases normal thrombin time to 45 seconds. A blood sample containing 0.2 ATU of unconjugated hirudin/ml increases patient thrombin time to 90 seconds. Using this knowledge, the amount of hirudin in a patient's plasma can be calculated to be 0.15 ATU if the patient's thrombin time is determined to be 68 seconds.

## hirudin
thrombin
  type of inhibition: noncompetitive inhibitor of a linear mixed type
[1]; inhibitor 0.12 ATU
  % Inh. ATP Release: 56%
  % Inh. Plate. Aggreg.: 52%
  ATP Release: 0.60 µM
  Aggreg. OHMS/6 min.: 15.7 OHMS/6 min.
[1]; inhibitor 1.15 ATU
  % Inh. ATP Release: 100%
  % Inh. Plate. Aggreg.: 100%
  ATP Release: 0 µM
  Aggreg. OHMS/6 min.: 0 OHMS/6 min.
blood
  thrombin time: 90 s
